Results: US20140249135A1, “PIM KINASE INHIBITORS AND METHODS OF THEIR USE” (NOVARTIS AG, priority 2007, published 2014)
Read-outs that look alike come from different tables or passages of the source.

How the values were obtained:
Pim1 kinase = Pim1 kinase (Homo sapiens, UniProt P11309); assay: Pim1 ATP depletion assay; assay type: biochemical;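 further: Luciferase-luciferin luminescence readout of residual ATP after PIM1 transfers phosphate to a peptide substrate, 40 µM ATP added, reaction run to roughly half ATP consumption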
Sequence of Pim1 kinase (P11309 whole entry): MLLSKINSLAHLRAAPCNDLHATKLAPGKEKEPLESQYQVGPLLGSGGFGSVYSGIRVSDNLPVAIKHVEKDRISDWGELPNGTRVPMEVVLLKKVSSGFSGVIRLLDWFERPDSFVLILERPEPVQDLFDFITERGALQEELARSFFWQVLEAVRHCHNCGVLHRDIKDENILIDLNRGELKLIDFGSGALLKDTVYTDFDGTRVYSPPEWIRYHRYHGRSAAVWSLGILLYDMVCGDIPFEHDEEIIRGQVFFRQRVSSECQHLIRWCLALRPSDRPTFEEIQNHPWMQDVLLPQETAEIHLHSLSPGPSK

Pim2 kinase = Pim2 kinase (Homo sapiens, UniProt Q9P1W9); assay: Pim2 ATP depletion assay; assay type: biochemical;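 further: Luciferase-based luminescent readout of ATP remaining after PIM2 phosphorylates a BAD peptide, final 5 nM enzyme, 4 µM ATP, 10 µM peptide, 2.5% DMSO, run to roughly half ATP consumption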
Sequence of Pim2 kinase (Q9P1W9 whole entry): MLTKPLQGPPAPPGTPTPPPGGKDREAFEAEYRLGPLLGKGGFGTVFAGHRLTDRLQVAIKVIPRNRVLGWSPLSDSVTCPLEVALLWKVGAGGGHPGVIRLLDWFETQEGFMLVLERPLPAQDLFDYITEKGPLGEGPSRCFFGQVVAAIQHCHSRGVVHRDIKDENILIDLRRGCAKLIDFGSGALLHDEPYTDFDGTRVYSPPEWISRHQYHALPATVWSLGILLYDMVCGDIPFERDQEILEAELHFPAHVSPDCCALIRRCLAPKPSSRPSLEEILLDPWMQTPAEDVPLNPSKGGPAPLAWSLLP

Pim3 kinase = Pim3 kinase (Homo sapiens, UniProt Q86V86); assay: Pim3 ATP depletion assay; assay type: biochemical
[1] = tested on: KMS 11 (human myeloma cell line); assay: Cell proliferation assay (CellTiter-Glo), KMS 11; assay type: cell-based; settings: KMS11 cells
Description: (§1) KMS 11 (human myeloma cell line), were cultured in IMDM supplemented with 10% FBS, sodium pyruvate and antibiotics. Cells were plated in the same medium at a density of 2000 cells per well into 96 well tissue culture plates, with outside wells vacant, on the day of assay. MM1.s (human myeloma cell line), were cultured in RPMI1640 supplemented with 10% FBS, sodium pyruvate and antibiotics. Cells were plated in the same medium at a density of 5000 cells per well into 96 well tissue culture plates, with outside wells vacant, on the day of assay.
(§2) Test compounds supplied in DMSO were diluted into DMSO at 500 times the desired final concentrations before dilution into culture media to 2 times final concentrations. Equal volumes of 2× compounds were added to the cells in 96 well plates and incubated at 37° C. for 3 days.
(§3) After 3 days plates were equilibrated to room temperature and equal volume of CellTiter-Glow Reagent (Promega) was added to the culture wells. The plates were agitated briefly and luminescent signal was measured with luminometer. The percent inhibition of the signal seen in cells treated with DMSO alone vs. cells treated with control compound was calculated and used to determine EC50 values (i.e., the concentration of a test compound that is required to obtain 50% of the maximum effect in the cells) for tested compounds, as shown in Example 763.

[2] = tested on: MM1.s (human myeloma cell line); assay: Cell proliferation assay (CellTiter-Glo), MM1.s; assay type: cell-based; settings: MM1.s cells
Description: as §1, §2, §3

HEL 92.1.7 cells = assay: Cell proliferation assay (CellTiter-Glo), HEL 92.1.7; assay type: cell-based; settings: Homo sapiens, read-out: EC50 (μM) HEL 92.1.7
Procedure, shortened: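 Cells in RPMI1640 with 10% FBS were seeded at 1000 cells/well and exposed to compound dilutions from DMSO stocks for 3 days at 37 °C. Viability was read by CellTiter-Glo luminescence. EC50 was derived from percent inhibition relative to DMSO-only and control-compound wells.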

PC3 cells = assay: Cell proliferation assay (CellTiter-Glo), PC3; assay type: cell-based; settings: Homo sapiens, PC-3
Description: HEL 92.1.7 cells (ATTC No. TIB-180, an erythroleukemia line derived from malignant peripheral blood), MV4-11 cells (ATCC No. CRL-9591, a human acute monocytic leukemia line) and PC3 cells (ATCC No. CRL-1435, a human prostatic adenocarcinoma line) were cultured in RPMI1640 supplemented with 10% FBS, sodium pyruvate and antibiotics. Cells were plated in the same medium at a density of 1000 cells per well into 96 well tissue culture plates, with outside wells vacant, on the day of assay.
as §2, §3

[3] = target: T1, human full length PKCE enzyme (Homo sapiens, UniProt Q02156); assay: In vitro PKCE assay; assay type: biochemical; settings: 10 nM enzyme, 40 uM peptide substrate, 20 uM ATP, KinaseGlo Plus readout; read-out: PKCε IC50
T1 construct: human full length PKCE enzyme purchased from InVitrogen; purchased InVitrogen
T1 sequence (Q02156 1-737): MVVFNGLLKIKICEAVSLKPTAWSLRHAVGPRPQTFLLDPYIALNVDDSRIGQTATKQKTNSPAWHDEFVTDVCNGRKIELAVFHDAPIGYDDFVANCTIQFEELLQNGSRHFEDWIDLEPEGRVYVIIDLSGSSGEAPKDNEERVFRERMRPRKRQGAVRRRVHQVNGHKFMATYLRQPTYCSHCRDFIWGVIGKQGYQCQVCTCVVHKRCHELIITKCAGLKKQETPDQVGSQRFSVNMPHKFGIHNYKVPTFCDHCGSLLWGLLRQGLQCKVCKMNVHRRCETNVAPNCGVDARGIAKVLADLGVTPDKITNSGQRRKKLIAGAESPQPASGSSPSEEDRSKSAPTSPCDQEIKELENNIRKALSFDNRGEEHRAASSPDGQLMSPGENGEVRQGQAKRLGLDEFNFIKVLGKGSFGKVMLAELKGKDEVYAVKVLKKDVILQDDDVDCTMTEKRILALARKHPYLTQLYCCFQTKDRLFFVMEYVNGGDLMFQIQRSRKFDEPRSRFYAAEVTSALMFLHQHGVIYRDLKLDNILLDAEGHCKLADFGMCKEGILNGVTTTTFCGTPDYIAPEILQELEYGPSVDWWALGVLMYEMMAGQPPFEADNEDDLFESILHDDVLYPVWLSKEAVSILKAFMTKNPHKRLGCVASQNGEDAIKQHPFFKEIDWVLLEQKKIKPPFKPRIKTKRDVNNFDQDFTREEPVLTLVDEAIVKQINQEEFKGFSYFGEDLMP

KDR kinase = KDR kinase (Homo sapiens, UniProt P35968); assay: KDR AlphaScreen assay; settings: KDR IC50 (μM)
Sequence of KDR kinase (P35968 20-1356): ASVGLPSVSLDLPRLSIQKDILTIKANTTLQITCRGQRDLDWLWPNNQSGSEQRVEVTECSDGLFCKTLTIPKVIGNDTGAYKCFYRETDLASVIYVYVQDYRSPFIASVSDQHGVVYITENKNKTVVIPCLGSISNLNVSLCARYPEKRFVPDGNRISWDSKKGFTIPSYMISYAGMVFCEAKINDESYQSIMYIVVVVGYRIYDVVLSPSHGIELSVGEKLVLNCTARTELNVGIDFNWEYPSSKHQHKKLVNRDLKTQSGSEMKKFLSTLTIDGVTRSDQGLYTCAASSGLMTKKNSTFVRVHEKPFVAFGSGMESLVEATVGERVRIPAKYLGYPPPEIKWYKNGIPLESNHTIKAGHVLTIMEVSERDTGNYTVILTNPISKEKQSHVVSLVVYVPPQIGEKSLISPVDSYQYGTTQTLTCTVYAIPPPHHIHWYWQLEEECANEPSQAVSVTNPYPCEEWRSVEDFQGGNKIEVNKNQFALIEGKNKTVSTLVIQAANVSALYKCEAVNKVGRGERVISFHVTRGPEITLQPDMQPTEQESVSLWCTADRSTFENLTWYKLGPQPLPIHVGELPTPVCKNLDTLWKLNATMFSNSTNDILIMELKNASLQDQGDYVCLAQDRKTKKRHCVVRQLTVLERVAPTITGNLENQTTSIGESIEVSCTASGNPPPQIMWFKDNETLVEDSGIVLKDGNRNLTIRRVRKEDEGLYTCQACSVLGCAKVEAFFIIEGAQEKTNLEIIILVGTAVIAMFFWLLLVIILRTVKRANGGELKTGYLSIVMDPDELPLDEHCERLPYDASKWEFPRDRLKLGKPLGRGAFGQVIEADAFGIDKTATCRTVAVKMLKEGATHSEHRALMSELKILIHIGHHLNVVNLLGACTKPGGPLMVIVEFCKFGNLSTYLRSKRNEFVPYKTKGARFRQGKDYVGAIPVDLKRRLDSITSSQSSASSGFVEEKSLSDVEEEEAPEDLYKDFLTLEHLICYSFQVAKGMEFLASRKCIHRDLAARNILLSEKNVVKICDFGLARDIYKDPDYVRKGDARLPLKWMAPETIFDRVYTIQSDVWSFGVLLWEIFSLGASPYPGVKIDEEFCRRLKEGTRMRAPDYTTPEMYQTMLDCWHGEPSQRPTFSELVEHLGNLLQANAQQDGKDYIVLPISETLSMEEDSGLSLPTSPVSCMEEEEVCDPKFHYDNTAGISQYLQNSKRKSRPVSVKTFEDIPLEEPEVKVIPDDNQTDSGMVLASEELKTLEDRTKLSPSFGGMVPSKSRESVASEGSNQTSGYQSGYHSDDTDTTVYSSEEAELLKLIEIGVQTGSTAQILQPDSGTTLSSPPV

[4] = Pim1 ATP depletion assay, read-out: PIM1 IC50
[5] = Pim1 ATP depletion assay, read-out: IC50 (μM) PIM1

| Structure (SMILES) | IC50 (Pim1 kinase; [4]) [µM] | IC50 (Pim2 kinase; read-out: PIM2 IC50) [µM] | IC50 (Pim3 kinase; read-out: PIM3 IC50) [µM] | EC50 ([1]; read-out: KMS11 EC50) [µM] | EC50 ([2]; read-out: MM1.s EC50) [µM] | IC50 (Pim1 kinase) [µM] | IC50 (Pim1 kinase; [5]) [µM] | IC50 (Pim2 kinase; read-out: IC50 (μM) PIM2) [µM] | IC50 (Pim3 kinase; read-out: IC50 (μM) PIM3) [µM] | EC50 ([1]; read-out: EC50 (μM) KMS11) [µM] | EC50 ([2]; read-out: EC50 (μM) MM1.s) [µM] | EC50 (HEL 92.1.7 cells) [µM] | EC50 (PC3 cells) [µM] | IC50 [3] [nM] | IC50 (KDR kinase) [µM] |
| --- | --- | --- | --- | --- | --- | --- | --- | --- | --- | --- | --- | --- | --- | --- | --- |
| CO[C@@H]1C[C@H](N)CN(c2ccncc2NC(=O)c2nc(-c3ccccc3)ccc2N)C1 [Example 580, 3-Amino-6-phenyl-pyridine-2-carboxylic acid (3-amino-5-methoxy-3,4,5,6-tetrahydro-2H-[1,4′]bipyridinyl-3′-yl)-amide] | < 1 | < 1 | < 1 | 1 to 5 | 1 to 5 | – | – | – | – | – | – | – | – | – | – |
| N[C@@H]1CN(c2ccncc2NC(=O)c2ccc(F)c(-c3c(F)cccc3F)n2)CC[C@H]1O [Example 683, 6-(2,6-Difluoro-phenyl)-5-fluoro-pyridine-2-carboxylic acid (3-amino-4-hydroxy-3,4,5,6-tetrahydro-2H-[1,4′]bi-pyridinyl-3′-yl)-amide] | < 1 | < 1 | < 1 | < 1 | 1 to 5 | – | – | – | – | – | – | – | – | – | – |
| Nc1ccc(-c2c(F)cccc2F)nc1C(=O)Nc1cnccc1N1CC[C@H](O)[C@H](N)C1 [Example 754, 3-Amino-6-(2,6-difluoro-phenyl)-pyridine-2-carboxylic acid (3-amino-4-hydroxy-3,4,5,6-tetra-hydro-2H-[1,4′]bipyridinyl-3′-yl)-amide] | – | < 1 | < 1 | < 1 | 1 to 5 | < 1 | – | – | – | – | – | – | – | – | – |
| Nc1ccc(-c2c(F)cccc2F)nc1C(=O)Nc1cnccc1N1CC[C@H](F)[C@@H](N)C1 [Example 276, 3-Amino-6-(2,6-difluoro-phenyl)-pyridine-2-carboxylic acid (3-amino-4-fluoro-3,4,5,6-tetrahydro-2H-[1,4′]bipyridinyl-3′-yl)-amide] | – | – | – | – | – | – | < 1 | < 1 | < 1 | 1 to 5 | 5 to 10 | – | – | – | – |
| CCCOc1ccc(F)c(-c2nc(C(=O)Nc3cnccc3N3CCC[C@H](N)C3)c(N)cc2F)c1F [Example 494, 3-Amino-6-(2,6-difluoro-3-propoxy-phenyl)-5-fluoro-pyridine-2-carboxylic acid (3-amino-3,4,5,6-tetrahydro-2H-[1,4′]bipyridinyl-3′-yl)-amide] | – | – | – | – | – | – | < 1 | < 1 | < 1 | < 1 | 1 to 5 | – | – | – | – |
| CCCOc1ccc(F)c(-c2ccc(N)c(C(=O)Nc3cnccc3N3C[C@@H](N)C[C@@H](F)C3)n2)c1 [Example 577, 3-Amino-6-(2-fluoro-5-propoxy-phenyl)-pyridine-2-carboxylic acid (3-amino-5-fluoro-3,4,5,6-tetrahydro-2H-[1,4′]bipyridinyl-3′-yl)-amide] | < 1 | < 1 | < 1 | 1 to 5 | 1 to 5 | – | – | – | – | – | – | – | – | – | – |
| N[C@H]1CCCN(c2ccncc2NC(=O)c2ccc(F)c(-c3c(F)cccc3F)n2)C1 [Example 445] | – | – | – | – | – | – | < 1 | – | < 1 | 1 to 5 | 1 to 5 | – | – | – | – |
| N#Cc1ccccc1-c1cnc(N)c(C(=O)Nc2cnccc2N2CCCC(N)C2)n1 (stereo not drawn) [Example 345, 3-amino-6-(2-cyano-phenyl)-pyrazine-2-carboxylic acid (3-amino-3,4,5,6-tetrahydro-2H-[1,4′]bipyridinyl-3′-yl)-amide] | – | – | – | – | – | – | < 1 | < 1 | < 1 | – | – | < 1 | < 1 | < 1000 | < 1 |
| Nc1ccc(-c2ccncc2Cl)nc1C(=O)Nc1cnccc1N1CCC[C@H](N)C1 [Example 422, 5-amino-3′-chloro-[2,4′]bi-pyridinyl-6-carboxylic acid ((S)-3-amino-3,4,5,6-tetrahydro-2H-[1,4′]bipyridinyl-3′-yl)-amide] | – | – | – | – | – | – | < 1 | < 1 | < 1 | – | – | 1 to 5 | > 10 | 10000 to 25000 | > 25 |
